We go through five molecules from ChEMBL document CHEMBL5465560, “Selectivity Literature for EUbOPEN Chemogenomic Library” (2024).

For assay [1], the target named is T1, Serine/threonine-protein kinase TBK1 (Homo sapiens) (UniProt Q9UHD2).
T1 sequence (whole entry): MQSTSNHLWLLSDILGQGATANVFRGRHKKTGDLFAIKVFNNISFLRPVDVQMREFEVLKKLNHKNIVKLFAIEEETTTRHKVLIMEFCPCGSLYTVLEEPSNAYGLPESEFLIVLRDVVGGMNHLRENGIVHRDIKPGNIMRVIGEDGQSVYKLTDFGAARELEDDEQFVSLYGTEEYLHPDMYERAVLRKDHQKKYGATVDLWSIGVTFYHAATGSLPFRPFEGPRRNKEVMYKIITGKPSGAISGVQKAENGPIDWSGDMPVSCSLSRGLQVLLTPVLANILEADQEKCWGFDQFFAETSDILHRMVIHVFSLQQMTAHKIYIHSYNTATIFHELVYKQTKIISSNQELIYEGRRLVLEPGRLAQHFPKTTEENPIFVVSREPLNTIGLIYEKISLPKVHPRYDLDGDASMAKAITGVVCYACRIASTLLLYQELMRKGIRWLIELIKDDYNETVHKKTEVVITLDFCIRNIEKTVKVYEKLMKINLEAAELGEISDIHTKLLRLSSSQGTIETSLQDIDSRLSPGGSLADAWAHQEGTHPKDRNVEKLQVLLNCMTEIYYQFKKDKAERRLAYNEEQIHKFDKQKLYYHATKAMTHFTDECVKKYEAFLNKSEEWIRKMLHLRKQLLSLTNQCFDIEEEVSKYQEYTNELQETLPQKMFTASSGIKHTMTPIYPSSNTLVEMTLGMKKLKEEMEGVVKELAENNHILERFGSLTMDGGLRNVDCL
As to the kind of experiment: Selectivity interaction (ActivX KiNativ screen (kinase selectivity in THP-1 cell lysates)) EUB0000639a TBK1. Format: subcellular. To be noted: lysate.

The target in assay [2] is Mitotic checkpoint serine/threonine-protein kinase BUB1 (Homo sapiens, UniProt O43683). As to the kind of experiment: Selectivity interaction (KinomeScan (DiscoverX)) EUB0001049a BUB1. To be noted: at 1 µM.
The target in assay [3] is Phosphorylase b kinase gamma catalytic chain, skeletal muscle/heart isoform (Homo sapiens) (UniProt Q16816). The experiment in a line: Selectivity interaction (KinomeScan (DiscoverX)) EUB0001049a PHKG1. To be noted: at 1 µM.
Assay [4] has as its target MAP/microtubule affinity-regulating kinase 3 (Homo sapiens) (UniProt P27448). The experiment in a line: Selectivity interaction (KinomeScan (DiscoverX)) EUB0000045b MARK3.
Assay [5] has as its target T2, Ephrin type-B receptor 4 (Homo sapiens) (UniProt P54760).
T2 sequence (whole entry): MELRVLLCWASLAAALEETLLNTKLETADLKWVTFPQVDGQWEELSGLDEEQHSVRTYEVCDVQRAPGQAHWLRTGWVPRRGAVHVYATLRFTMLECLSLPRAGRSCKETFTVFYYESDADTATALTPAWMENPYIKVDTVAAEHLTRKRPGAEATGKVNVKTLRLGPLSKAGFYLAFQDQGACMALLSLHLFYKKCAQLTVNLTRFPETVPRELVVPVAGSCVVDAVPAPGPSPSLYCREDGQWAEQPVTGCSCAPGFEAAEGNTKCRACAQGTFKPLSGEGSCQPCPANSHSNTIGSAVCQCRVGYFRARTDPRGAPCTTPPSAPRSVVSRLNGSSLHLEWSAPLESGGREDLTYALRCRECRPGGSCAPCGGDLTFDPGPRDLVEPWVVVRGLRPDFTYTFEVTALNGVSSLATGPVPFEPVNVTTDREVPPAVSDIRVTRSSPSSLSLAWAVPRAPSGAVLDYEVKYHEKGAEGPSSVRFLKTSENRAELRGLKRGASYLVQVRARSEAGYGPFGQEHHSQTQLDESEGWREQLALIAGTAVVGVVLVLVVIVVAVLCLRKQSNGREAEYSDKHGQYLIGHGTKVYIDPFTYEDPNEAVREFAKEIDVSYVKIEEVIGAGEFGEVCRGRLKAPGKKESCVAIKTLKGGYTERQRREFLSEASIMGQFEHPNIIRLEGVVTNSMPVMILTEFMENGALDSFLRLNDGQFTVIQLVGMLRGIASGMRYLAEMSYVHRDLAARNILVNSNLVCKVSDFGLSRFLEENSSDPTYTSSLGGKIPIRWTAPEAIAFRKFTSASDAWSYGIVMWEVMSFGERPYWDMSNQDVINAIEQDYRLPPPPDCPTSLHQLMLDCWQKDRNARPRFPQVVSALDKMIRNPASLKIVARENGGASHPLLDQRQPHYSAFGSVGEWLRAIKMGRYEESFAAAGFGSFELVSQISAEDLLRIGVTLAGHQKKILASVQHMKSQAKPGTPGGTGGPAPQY
The experiment in a line: Selectivity interaction (Upstate Kinase Profiler service (Millipore)) EUB0000056c EPHB4. To be noted: at 1 µM.

Assay [6] deals with Serine/threonine-protein kinase pim-3 (Homo sapiens) (UniProt Q86V86). As to the kind of experiment: Selectivity interaction (KinomeScan (DiscoverX)) EUB0000595a PIM3. To be noted: at 10 µM.

SMILES strings stand for the structures.

MAP/microtubule affinity-regulating kinase 3 (Homo sapiens), sequence (P27448 whole entry, looked up): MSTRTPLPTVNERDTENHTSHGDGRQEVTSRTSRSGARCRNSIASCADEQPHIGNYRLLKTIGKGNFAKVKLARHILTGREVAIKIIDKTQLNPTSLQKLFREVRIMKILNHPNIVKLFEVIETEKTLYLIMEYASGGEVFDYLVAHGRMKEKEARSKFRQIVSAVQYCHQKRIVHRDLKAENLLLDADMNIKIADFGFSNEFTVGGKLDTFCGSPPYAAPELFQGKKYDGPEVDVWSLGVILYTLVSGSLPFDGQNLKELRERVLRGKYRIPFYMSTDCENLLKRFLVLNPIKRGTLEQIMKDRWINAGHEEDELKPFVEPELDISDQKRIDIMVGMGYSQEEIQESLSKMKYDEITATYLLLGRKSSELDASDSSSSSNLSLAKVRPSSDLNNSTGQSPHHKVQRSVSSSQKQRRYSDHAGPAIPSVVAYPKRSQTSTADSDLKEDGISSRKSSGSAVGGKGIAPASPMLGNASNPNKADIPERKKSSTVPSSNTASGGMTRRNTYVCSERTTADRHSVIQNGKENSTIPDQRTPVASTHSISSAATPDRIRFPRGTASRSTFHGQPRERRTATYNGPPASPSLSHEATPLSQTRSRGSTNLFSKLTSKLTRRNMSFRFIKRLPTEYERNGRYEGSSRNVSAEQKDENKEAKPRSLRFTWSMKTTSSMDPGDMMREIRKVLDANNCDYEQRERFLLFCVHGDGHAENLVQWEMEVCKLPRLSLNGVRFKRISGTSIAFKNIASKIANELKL
Mitotic checkpoint serine/threonine-protein kinase BUB1, sequence (O43683 whole entry, looked up, canonical isoform): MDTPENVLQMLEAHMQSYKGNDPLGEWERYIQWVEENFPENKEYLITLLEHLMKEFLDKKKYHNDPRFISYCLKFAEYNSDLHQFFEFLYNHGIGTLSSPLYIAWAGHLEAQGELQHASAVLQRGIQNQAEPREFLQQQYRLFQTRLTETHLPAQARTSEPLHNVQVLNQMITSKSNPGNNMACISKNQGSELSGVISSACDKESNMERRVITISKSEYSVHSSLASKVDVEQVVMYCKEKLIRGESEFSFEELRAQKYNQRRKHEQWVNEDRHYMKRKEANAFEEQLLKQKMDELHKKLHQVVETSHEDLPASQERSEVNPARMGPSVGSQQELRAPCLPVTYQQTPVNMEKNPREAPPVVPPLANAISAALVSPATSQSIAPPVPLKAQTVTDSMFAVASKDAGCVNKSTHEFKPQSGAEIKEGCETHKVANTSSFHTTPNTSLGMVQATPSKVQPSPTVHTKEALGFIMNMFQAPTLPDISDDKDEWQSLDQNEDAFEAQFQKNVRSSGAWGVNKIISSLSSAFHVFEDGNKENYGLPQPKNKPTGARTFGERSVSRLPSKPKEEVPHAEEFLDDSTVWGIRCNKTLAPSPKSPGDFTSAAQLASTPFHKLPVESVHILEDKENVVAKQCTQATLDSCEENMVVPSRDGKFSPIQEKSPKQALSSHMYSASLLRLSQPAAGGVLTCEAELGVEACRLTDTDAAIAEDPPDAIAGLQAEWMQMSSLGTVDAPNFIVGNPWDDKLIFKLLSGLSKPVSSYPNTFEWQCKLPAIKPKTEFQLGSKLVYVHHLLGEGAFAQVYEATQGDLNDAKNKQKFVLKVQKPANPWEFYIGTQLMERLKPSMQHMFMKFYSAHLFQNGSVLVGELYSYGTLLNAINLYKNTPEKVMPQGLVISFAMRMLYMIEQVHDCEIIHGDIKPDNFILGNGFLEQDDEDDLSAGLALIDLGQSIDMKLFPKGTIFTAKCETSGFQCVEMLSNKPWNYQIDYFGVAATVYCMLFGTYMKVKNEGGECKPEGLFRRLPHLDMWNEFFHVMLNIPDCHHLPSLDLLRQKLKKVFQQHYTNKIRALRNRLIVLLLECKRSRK
Phosphorylase b kinase gamma catalytic chain, skeletal muscle/heart isoform (Homo sapiens), sequence (Q16816 whole entry, looked up, canonical isoform): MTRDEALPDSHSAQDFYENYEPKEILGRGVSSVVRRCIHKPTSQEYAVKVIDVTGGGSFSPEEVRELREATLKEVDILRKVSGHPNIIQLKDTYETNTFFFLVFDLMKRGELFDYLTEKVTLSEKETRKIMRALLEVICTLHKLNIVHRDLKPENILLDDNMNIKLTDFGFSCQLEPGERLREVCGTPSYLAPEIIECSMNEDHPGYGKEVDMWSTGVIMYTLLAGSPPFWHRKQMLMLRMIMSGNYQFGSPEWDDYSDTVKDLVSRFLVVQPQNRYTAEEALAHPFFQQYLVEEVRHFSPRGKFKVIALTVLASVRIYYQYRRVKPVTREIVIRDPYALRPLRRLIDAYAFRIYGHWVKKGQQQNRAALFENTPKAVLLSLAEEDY

On to `CC[C@@H]1[C@H](F)C(=O)N[C@@H]1COc1nccc2cc(C(N)=O)c(OC)cc12` [ZIMLOVISERTIB], for which the % of inhibition in assay [1] (at 0.01 µM) is -51.9%; in assay [1] (at 0.04 µM), -22.2%; in assay [1] (at 0.2 µM) it was -29.9%; in assay [1] (at 1 µM) it was 10%; in assay [1] (at 5 µM), 26.2%.

Take `COc1cc(Nc2nc(C)cc(-c3cnn4nc(OC)ccc34)n2)cc(C(F)(F)F)c1`: the % of control was determined as 67% in assay [2] and 85% in assay [3].

Take `C=CC(=O)Nc1cc(-n2c(=O)ccc3cnc4ccc(-c5ccc(NS(C)(=O)=O)cc5)cc4c32)ccc1C`: the % of control in assay [4] (at 1 µM) came to 75%; in assay [4] (at 10 µM), 97%.

With `Cc1ccc(-c2ccc3c(ccc4sc5c(c43)NC[C@@H](C)NC5=O)n2)cn1`, in assay [5], the % of inhibition is -11%.

The molecule `COCC(=O)NC/C=C/c1ccc2ncnc(Nc3ccc(Oc4ccc(C)nc4)c(C)c3)c2c1` [CP-724714] registered a % of control in assay [6] of 100%.
